Results reported in patent publication US20160158200A1, “Combinations of Hepatitis C Virus Inhibitors” (priority 2013, published 2016).

System: HCV genotype-1a variant with glutamine 30 changed to glutamate in the NS5A protein
Type: cell-based
Details: test compound titrated with BMS-790052 fixed at 200 nM; genotype 1a Q30E replicon
Outline: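 Synergy was assessed by combining several fixed amounts of an NS5A-targeting compound with a titration of the second compound of interest.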

**Q.** Which “Fold-Synergistic 1a (Q30E)” value does the source give for `CC(C)[C@H](NC(=O)C(C)(C)C)c1nc(-c2ccc(-c3ccc(-c4c[nH]c([C@@H](NC(=O)C(C)(C)C)C(C)C)n4)cn3)cc2)c[nH]1.O=C(O)C(F)(F)F` [Compound N-103] here?
**A.** >100 fold

**Q.** For `CC(C)[C@H](NC(=O)c1ccc(F)cc1Cl)c1ncc(-c2ccc(-c3ccc(-c4cnc([C@@H](NC(=O)c5ccc(F)cc5Cl)C(C)C)[nH]4)cc3)cc2)[nH]1` [Compound S-88], which “Fold-Synergistic 1a (Q30E)” value is on record?
**A.** >100 fold

**Q.** For `CC(C)(C)CC(=O)NC1(C(=O)N[C@H](c2nc(-c3ccc(-c4ccc(-c5c[nH]c([C@@H](NC(=O)C6(NC(=O)CC(C)(C)C)CCCCC6)C(C)(C)C)n5)cc4)cc3)c[nH]2)C(C)(C)C)CCCCC1` [Compound W-254], which “Fold-Synergistic 1a (Q30E)” value is on record?
**A.** >100 fold

**Q.** With `CC(C)(F)C(NC(=O)C1CCC(F)(F)CC1)c1nc(-c2ccc(-c3ccc(-c4c[nH]c(C(NC(=O)C5CCC(F)(F)CC5)C(C)(C)F)n4)cc3)cc2)c[nH]1` (single isomer, unassigned) [Compound N-106C] as the compound, how does the “Fold-Synergistic 1a (Q30E)” value read?
**A.** >100 fold

**Q.** `CC(C)[C@H](NC(=O)c1cc(Cl)ccc1F)c1ncc(-c2ccc3c(c2)Cc2cc(-c4cnc([C@@H](NC(=O)c5cc(Cl)ccc5F)C(C)C)[nH]4)ccc2-3)[nH]1.O=C(O)C(F)(F)F` [Compound N-73] was tested. Which “Fold-Synergistic 1a (Q30E)” value did it give?
**A.** >100 fold

**Q.** For `CC(C)(C)[C@H](NC(=O)C1CCC(F)(F)CC1)c1ncc(-c2ccc(C#Cc3ccc4nc([C@@H](NC(=O)C5CCC(F)(F)CC5)C(C)(C)C)[nH]c4c3)cc2)[nH]1` [Compound B45], which “Fold-Synergistic 1a (Q30E)” value is on record?
**A.** >100 fold

**Q.** `CC(C)[C@H](N[S+]([O-])C(C)(C)C)c1ncc(-c2ccc(-c3ccc(-c4cnc([C@@H](N[S+]([O-])C(C)(C)C)C(C)C)[nH]4)cc3)cc2)[nH]1` (some centres unmarked) [Compound Y-61] was tested. Which “Fold-Synergistic 1a (Q30E)” value did it give?
**A.** <10 fold

**Q.** For `O=C(c1ccccc1Oc1ccccc1)N1CCC[C@H]1c1ncc(-c2ccc(-c3ccc(-c4cnc([C@@H]5CCCN5C(=O)c5ccccc5Oc5ccccc5)[nH]4)cc3)cc2)[nH]1` [Compound S-114], which “Fold-Synergistic 1a (Q30E)” value is on record?
**A.** <10 fold

**Q.** `CC1(C(O)C(C)(C)C(=O)N[C@H](c2nc(-c3ccc(-c4ccc(-c5c[nH]c([C@@H](NC(=O)C(C)(C)C(O)C6(C)CC6)C(C)(C)C)n5)cc4)cc3)c[nH]2)C(C)(C)C)CC1` (single isomer, unassigned) [Compound N-151C] was tested. Which “Fold-Synergistic 1a (Q30E)” value did it give?
**A.** >100 fold

**Q.** Which “Fold-Synergistic 1a (Q30E)” value does the source give for `CC(C)(NCC(F)(F)F)C(=O)NC(c1nc(-c2ccc(-c3ccc(-c4c[nH]c(C(NC(=O)C(C)(C)NCC(F)(F)F)C(C)(C)C)n4)cc3)cc2)c[nH]1)C(C)(C)C` [Compound L-50] here?
**A.** >100 fold

**Q.** `CCCCOC(=O)N[C@@H](C(=O)N[C@H](c1ncc(-c2ccc(-c3ccc(-c4cnc([C@@H](NC(=O)[C@H](NC(=O)OCCCC)C(C)C)C(C)C)[nH]4)cc3)cc2)[nH]1)C(C)C)C(C)C` [Compound S-249] was tested. Which “Fold-Synergistic 1a (Q30E)” value did it give?
**A.** >100 fold

**Q.** `CC(C)[C@H](NC(=O)c1ccc2nccnc2c1)c1ncc(-c2ccc(-c3ccc(-c4cnc([C@@H](NC(=O)c5ccc6nccnc6c5)C(C)C)[nH]4)cc3)cc2)[nH]1` [Compound S-19] was tested. Which “Fold-Synergistic 1a (Q30E)” value did it give?
**A.** >100 fold

**Q.** How did the “Fold-Synergistic 1a (Q30E)” value turn out when `CC(C)[C@H](NC(=O)[C@@]1(C)CCC(F)(F)CO1)c1nc(-c2ccc(-c3ccc(-c4c[nH]c([C@@H](NC(=O)[C@@]5(C)CCC(F)(F)CO5)C(C)C)n4)cc3F)cc2)c[nH]1` [Compound N-133] was run?
**A.** >100 fold

**Q.** How did the “Fold-Synergistic 1a (Q30E)” value turn out when `CC(C)[C@H](NC(=O)C(C)(C)C)c1ncc(-c2ccc(-c3ccc(-c4cnc([C@@H](NC(=O)C(C)(C)C)C(C)C)n4C)cc3)cc2)n1C` [Compound B-205] was run?
**A.** <10 fold

**Q.** `CCC(=O)N[C@H](c1ncc(-c2ccc(-c3ccc(-c4cnc([C@@H](NC(=O)CC)C(C)C)[nH]4)cc3)cc2)[nH]1)C(C)C` [Compound S-31] was tested. Which “Fold-Synergistic 1a (Q30E)” value did it give?
**A.** >100 fold

**Q.** `CC(C)[C@H](NC(=O)C(C)(C)C)c1ncc(-c2ccc(-c3ccc(-c4cnc([C@@H](NC(=O)C(C)(C)C)C(C)C)[nH]4)cc3)cc2)[nH]1` [Compound S-34] was tested. Which “Fold-Synergistic 1a (Q30E)” value did it give?
**A.** >100 fold

**Q.** With `CC(C)(C)[C@H](NC(=O)C1CCC(F)(F)CC1)c1nc2ccc3cc(-c4ccc5c(ccc6nc([C@@H](NC(=O)C7CCC(F)(F)CC7)C(C)(C)C)[nH]c65)c4)ccc3c2[nH]1` [Compound B25] as the compound, how does the “Fold-Synergistic 1a (Q30E)” value read?
**A.** >100 fold

**Q.** Which “Fold-Synergistic 1a (Q30E)” value does the source give for `CC(C)(C)[C@H](NC(=O)C1CC2(C1)OCCO2)c1nc(-c2ccc(-c3ccc(-c4c[nH]c([C@@H](NC(=O)C5CC6(C5)OCCO6)C(C)(C)C)n4)cc3)cc2)c[nH]1` (some centres unmarked) [Compound W-178] here?
**A.** >100 fold

**Q.** `CC(C)[C@H](NC(=O)C(=O)C1(CF)CCC(F)(F)CC1)c1ncc(-c2ccc(-c3ccc(-c4cnc([C@@H](NC(=O)C(=O)C5(CF)CCC(F)(F)CC5)C(C)C)[nH]4)cc3)cc2)[nH]1` [Compound P-127] was tested. Which “Fold-Synergistic 1a (Q30E)” value did it give?
**A.** >100 fold

**Q.** With `CC(C)[C@H](NC(=O)CC(C)(C)C)c1ncc(-c2ccc(-c3ccc(-c4cnc([C@@H](NC(=O)CC(C)(C)C)C(C)C)[nH]4)cc3)cc2)[nH]1` [Compound P-56] as the compound, how does the “Fold-Synergistic 1a (Q30E)” value read?
**A.** >100 fold

**Q.** How did the “Fold-Synergistic 1a (Q30E)” value turn out when `COc1ccc2cc([C@@H](C)C(=O)N[C@H](c3nc(-c4ccc(-c5ccc(-c6c[nH]c([C@@H](NC(=O)[C@H](C)c7ccc8cc(OC)ccc8c7)C(C)(C)C)n6)cc5)cc4)c[nH]3)C(C)(C)C)ccc2c1` [Compound S-254] was run?
**A.** >100 fold

**Q.** Which “Fold-Synergistic 1a (Q30E)” value does the source give for `CC(C)[C@H](NC(=O)[C@H]1Cc2ccccc21)c1ncc(-c2ccc(-c3ccc(-c4cnc([C@@H](NC(=O)[C@H]5Cc6ccccc65)C(C)C)[nH]4)cc3)cc2)[nH]1` [Compound P-109] here?
**A.** >100 fold

**Q.** How did the “Fold-Synergistic 1a (Q30E)” value turn out when `CCOC(C)(C)C(=O)C(=O)N[C@H](c1ncc(-c2ccc(-c3ccc(-c4cnc([C@@H](NC(=O)C(=O)C(C)(C)OCC)C(C)C)[nH]4)cc3)cc2)[nH]1)C(C)C` [Compound P-117] was run?
**A.** >100 fold

**Q.** With `CC(C)(C)[C@H](NC(=O)C12CCC(O)(CC1)CC2)c1nc(-c2ccc(-c3ccc(-c4c[nH]c([C@@H](NC(=O)C56CCC(O)(CC5)CC6)C(C)(C)C)n4)cc3)cc2)c[nH]1` [Compound W-128] as the compound, how does the “Fold-Synergistic 1a (Q30E)” value read?
**A.** >100 fold

**Q.** For `Cc1ncoc1C(=O)N[C@H](c1ncc(-c2ccc(-c3ccc(-c4cnc([C@@H](NC(=O)c5ocnc5C)C(C)C)[nH]4)cc3)cc2)[nH]1)C(C)C` [Compound P-93], which “Fold-Synergistic 1a (Q30E)” value is on record?
**A.** >100 fold

**Q.** How did the “Fold-Synergistic 1a (Q30E)” value turn out when `CC(C)[C@H](NC(=O)C(C)(C)CO)c1ncc(-c2ccc(-c3ccc(-c4cnc([C@@H](NC(=O)C(C)(C)CO)C(C)C)[nH]4)cc3)cc2)[nH]1` [Compound P-67] was run?
**A.** >100 fold

**Q.** How did the “Fold-Synergistic 1a (Q30E)” value turn out when `CC1(C(=O)NC(c2nc(-c3ccc(-c4ccc(-c5c[nH]c(C(NC(=O)C6(C)CCCO6)C(C)(C)C)n5)cc4)cc3)c[nH]2)C(C)(C)C)CCCO1.O=C(O)C(F)(F)F.O=C(O)C(F)(F)F` (mixture of isomers) [Compound L-69] was run?
**A.** >100 fold

**Q.** Which “Fold-Synergistic 1a (Q30E)” value does the source give for `COC(=O)NC1CCCCC1C(=O)NC(c1nc(-c2ccc(-c3ccc(-c4c[nH]c(C(NC(=O)C5CCCCC5NC(=O)OC)C(C)(C)C)n4)cc3)cc2)c[nH]1)C(C)(C)C` (mixture of isomers) [Compound S-275] here?
**A.** >100 fold

**Q.** For `CC(C)(C)[C@H](NC(=O)C(=O)N(CCC#N)C1CC1)c1nc(-c2ccc(-c3ccc(-c4c[nH]c([C@@H](NC(=O)C(=O)N(CCC#N)C5CC5)C(C)(C)C)n4)cc3)cc2)c[nH]1` [Compound W-48], which “Fold-Synergistic 1a (Q30E)” value is on record?
**A.** >100 fold

**Q.** For `CC(C)[C@H](NC(=O)c1ccc(Cl)s1)c1ncc(-c2ccc(-c3ccc(-c4cnc([C@@H](NC(=O)c5ccc(Cl)s5)C(C)(C)C)[nH]4)cc3)cc2)[nH]1` [Compound Y-44], which “Fold-Synergistic 1a (Q30E)” value is on record?
**A.** >100 fold

**Q.** How did the “Fold-Synergistic 1a (Q30E)” value turn out when `CC(C)(C)[C@H](NC(=O)c1ccccc1O)c1nc(-c2ccc(-c3ccc(-c4c[nH]c([C@@H](NC(=O)c5ccccc5O)C(C)(C)C)n4)cc3)cc2)c[nH]1` [Compound Y-72] was run?
**A.** >100 fold

**Q.** `CC(C)[C@H](NC(=O)c1cc(Cl)ccc1F)c1nc(-c2ccc3c(c2)CCc2cc(-c4c[nH]c([C@@H](NC(=O)c5cc(Cl)ccc5F)C(C)C)n4)ccc2-3)c[nH]1.O=C(O)C(F)(F)F` [Compound N-76] was tested. Which “Fold-Synergistic 1a (Q30E)” value did it give?
**A.** >100 fold

**Q.** With `CC(C)[C@H](NC(=O)C(O)(CF)CF)c1nc(-c2ccc(-c3ccc(-c4c[nH]c([C@@H](NC(=O)C(O)(CF)CF)C(C)C)n4)cc3)cc2)c[nH]1` [Compound N-142] as the compound, how does the “Fold-Synergistic 1a (Q30E)” value read?
**A.** >100 fold

**Q.** `CC(C)(OCC(F)F)C(=O)N[C@H](c1nc(-c2ccc(-c3ccc(-c4c[nH]c([C@@H](NC(=O)C(C)(C)OCC(F)F)C(C)(C)C)n4)cc3)cc2)c[nH]1)C(C)(C)C` [Compound N-116] was tested. Which “Fold-Synergistic 1a (Q30E)” value did it give?
**A.** <10 fold

**Q.** `CC(C)C(C)(C)C(=O)N[C@H](c1ncc(-c2ccc(-c3ccc(-c4cnc([C@@H](NC(=O)C(C)(C)C(C)C)C(C)(C)C)[nH]4)cc3)cc2)[nH]1)C(C)(C)C` [Compound B88] was tested. Which “Fold-Synergistic 1a (Q30E)” value did it give?
**A.** >100 fold

**Q.** For `CC(C)[C@H](NC(=O)C1CCCC1)c1ncc(-c2ccc(-c3ccc(-c4cnc([C@@H](NC(=O)C5CCCC5)C(C)C)[nH]4)cc3)cc2)[nH]1` [Compound S-23], which “Fold-Synergistic 1a (Q30E)” value is on record?
**A.** >100 fold

**Q.** `O=C(C1Cc2ccccc2O1)N1CCC[C@H]1c1ncc(-c2ccc(-c3ccc(-c4cnc([C@@H]5CCCN5C(=O)C5Cc6ccccc6O5)[nH]4)cc3)cc2)[nH]1` (some centres unmarked) [Compound S-157] was tested. Which “Fold-Synergistic 1a (Q30E)” value did it give?
**A.** >10 fold

**Q.** With `CC(C)[C@H](NC(=O)[C@@]1(C)CCC(F)(F)CO1)c1nc(-c2ccc(-c3ccc(-c4c[nH]c([C@@H](NC(=O)[C@@]5(C)CCC(F)(F)CO5)C(C)C)n4)cn3)cc2)c[nH]1` [Compound N-134] as the compound, how does the “Fold-Synergistic 1a (Q30E)” value read?
**A.** >100 fold

**Q.** `CC(C)(C)[C@H](NC(=O)C1CC12CCC(F)(F)CC2)c1nc(-c2ccc(-c3ccc(-c4c[nH]c([C@@H](NC(=O)C5CC56CCC(F)(F)CC6)C(C)(C)C)n4)cc3)cc2)c[nH]1` (single isomer, unassigned) [Compound Y-95] was tested. Which “Fold-Synergistic 1a (Q30E)” value did it give?
**A.** >100 fold

**Q.** How did the “Fold-Synergistic 1a (Q30E)” value turn out when `COc1cccc2c(C(=O)N3CCC[C@H]3c3ncc(-c4ccc(-c5ccc(-c6cnc([C@@H]7CCCN7C(=O)c7nccc8c(OC)cccc78)[nH]6)cc5)cc4)[nH]3)nccc12` [Compound S-201] was run?
**A.** >100 fold

**Q.** For `CC(C)(C)[C@H](NC(=O)C1(C(O)c2ccccc2)CC1)c1nc(-c2ccc(-c3ccc(-c4c[nH]c([C@@H](NC(=O)C5(C(O)c6ccccc6)CC5)C(C)(C)C)n4)cc3)cc2)c[nH]1` (single isomer, unassigned) [Compound N-126C], which “Fold-Synergistic 1a (Q30E)” value is on record?
**A.** >100 fold
